Each structure is given as a SMILES string.

One series concerns the target T1, OX1 (Homo sapiens, UniProt O43613).
T1 construct: expressed in transfected cells; host or cells: CHO (CHO-OX1, kept under selection antibiotic)
T1 sequence (O43613 1-425): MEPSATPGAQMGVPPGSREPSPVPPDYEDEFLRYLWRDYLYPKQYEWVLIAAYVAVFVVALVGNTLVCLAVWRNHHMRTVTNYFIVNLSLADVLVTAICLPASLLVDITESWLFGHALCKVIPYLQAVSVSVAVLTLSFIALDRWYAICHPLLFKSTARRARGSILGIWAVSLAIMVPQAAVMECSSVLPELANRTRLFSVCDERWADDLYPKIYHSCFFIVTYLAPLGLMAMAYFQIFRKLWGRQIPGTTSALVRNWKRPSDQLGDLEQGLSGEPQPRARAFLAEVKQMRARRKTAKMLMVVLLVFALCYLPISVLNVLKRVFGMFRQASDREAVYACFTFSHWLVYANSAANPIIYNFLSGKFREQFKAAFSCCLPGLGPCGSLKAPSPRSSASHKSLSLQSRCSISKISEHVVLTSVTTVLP
Nature of the series: Orexin receptor cell-based functional assay, [Ca2+]i by FLIPR, CHO-OX1 cells. The settings on record: CHO-OX1 cells, [Ca2+]i by FLIPR, antagonist dose-range 0.1 nM-10 μM, EC90 of OXA; read-out: OX1. An outline of the steps: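 Antagonist mode FLIPR calcium read in CHO-OX1 and CHO-OX2 lines. Test compounds, dosed 0.1 nM-10 μM, preincubated 30 min after 37° C dye loading with 2.5 mM probenecid (calcium4 for 30 min or calcium6 for 2 h).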

The target in a further series is T2, CYP3A4 (Homo sapiens, UniProt P08684).
T2 construct: pre-incubated with human liver microsomes and NADPH; from tissue; host or cells: human liver microsomes
T2 sequence (P08684 whole entry): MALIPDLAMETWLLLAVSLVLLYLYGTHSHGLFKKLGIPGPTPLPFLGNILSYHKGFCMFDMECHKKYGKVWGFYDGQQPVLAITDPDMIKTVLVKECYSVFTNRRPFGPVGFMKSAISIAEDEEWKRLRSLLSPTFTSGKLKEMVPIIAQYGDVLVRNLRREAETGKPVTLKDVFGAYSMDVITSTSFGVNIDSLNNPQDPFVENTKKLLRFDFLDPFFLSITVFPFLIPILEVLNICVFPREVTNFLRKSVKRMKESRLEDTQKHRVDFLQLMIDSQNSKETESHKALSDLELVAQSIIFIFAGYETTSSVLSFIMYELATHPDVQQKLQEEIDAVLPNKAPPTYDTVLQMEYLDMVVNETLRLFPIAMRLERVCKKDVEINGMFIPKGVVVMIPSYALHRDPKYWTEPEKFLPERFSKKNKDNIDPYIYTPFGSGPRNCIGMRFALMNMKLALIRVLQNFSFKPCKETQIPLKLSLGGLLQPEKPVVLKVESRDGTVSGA
Nature of the series: Cytochrome P450 inhibition assay (midazolam hydroxylation). Format: in vitro ADME. The settings on record: human, human liver microsomes, probe midazolam (hydroxylation to 1′-hydroxymidazolam), 10 μM test compound, midazolam at approximately its Km. An outline of the steps: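 Percent inhibition of midazolam 1′-hydroxylation by 10 μM compound was measured, midazolam dosed at about Km. Time-dependent inhibition was probed by a 30 min preincubation of compound with human liver microsomes and NADPH ahead of substrate, compared against samples without preincubation.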
Background: Microsomes from liver hold many membrane-bound enzymes, among them those of drug oxidation.

With `Cc1ccc(-n2nccn2)c(C(=O)N2CCC[C@@H](C)[C@H]2CN(C)c2ccc(C(F)(F)F)cn2)n1` [Example A194, ((2S,3R)-3-Methyl-2-((methyl(5-(trifluoromethyl)pyridin-2-yl)amino)methyl)piperidin-1-yl)(6-methyl-3-(2H-1,2,3-triazol-2-yl)pyridin-2-yl)methanone], the IC50 at OX1 was found to be 6 nM. Further, 10 µM produced 79% inhibition against CYP3A4.
As to `Cc1ccc(-c2ncccn2)c(C(=O)N2CCC[C@@H](C)[C@H]2CNc2nnc(C(F)(F)F)s2)n1` [Example A187, ((2S,3R)-3-Methyl-2-(((5-(trifluoromethyl)-1,3,4-thiadiazol-2-yl)amino)methyl)piperidin-1-yl)(6-methyl-3-(pyrimidin-2-yl)pyridin-2-yl)methanone], at OX1, the IC50 amounted to 200 nM. The same molecule yielded an inhibition at 10 µM on CYP3A4 of 40%.
The like results for `C[C@@H]1CCCN(C(=O)c2ccccc2-n2nccn2)[C@@H]1CNc1nc2cc(Cl)ccc2o1` [Example A219, (2-(2H-1,2,3-Triazol-2-yl)phenyl)((2S,3R)-2-(((5-chlorobenzo[d]oxazol-2-yl)amino)methyl)-3-methylpiperidin-1-yl)methanone] were, in that order, 2600 nM and 84%.
As to `C[C@@H]1CCCN(C(=O)c2cc(F)c(F)cc2-n2nccn2)[C@@H]1CNc1ncc(Cl)cn1` [Example A247, ((2S,3R)-2-(((5-Chloropyrimidin-2-yl)amino)methyl)-3-methylpiperidin-1-yl)(4,5-difluoro-2-(2H-1,2,3-triazol-2-yl)phenyl)methanone], the IC50 at OX1 was more than 100 nM. On CYP3A4, testing at 10 µM gave an inhibition of 65%.
Taken in the same sequence, the figures for `C[C@@H]1CCCN(C(=O)c2cc(F)c(F)cc2-n2nccn2)[C@@H]1CNc1ccc(C(F)(F)F)cn1` [Example A249, (4,5-Difluoro-2-(2H-1,2,3-triazol-2-yl)phenyl)((2S,3R)-3-methyl-2-(((5-(trifluoromethyl)pyridin-2-yl)amino)methyl)piperidin-1-yl)methanone] were 18 nM and 83%.
Taken in the same sequence, the figures for `Cc1ccc(-n2ccc(C)n2)c(C(=O)N2CCC[C@@H](C)[C@H]2CNc2ccc(Cl)cn2)c1` [Example A120, ((2S,3R)-2-(((5-Chloropyridin-2-yl)amino)methyl)-3-methylpiperidin-1-yl)(5-methyl-2-(3-methyl-1H-pyrazol-1-yl)phenyl)methanone] were 21 nM and 90%.
Turning to `Cc1ccc(-c2ccn(C)n2)c(C(=O)N2CCC[C@@H](C)[C@H]2CNc2ccc(C(F)(F)F)cn2)c1` [Example A18, ((2S,3R)-3-Methyl-2-(((5-(trifluoromethyl)pyridin-2-yl)amino)methyl)piperidin-1-yl)(5-methyl-2-(1-methyl-1H-pyrazol-3-yl)phenyl)methanone], the IC50 on OX1 is 7 nM. Also, the inhibition at 10 µM on CYP3A4 was determined as 95%.
On to `Cc1ccc(-c2nccn2C)c(C(=O)N2CCC[C@@H](C)[C@H]2CNc2ccc(C(F)(F)F)cn2)c1` [Example A20, ((2S,3R)-3-Methyl-2-(((5-(trifluoromethyl)pyridin-2-yl)amino)methyl)piperidin-1-yl)(5-methyl-2-(1-methyl-1H-imidazol-2-yl)phenyl)methanone], for which, at OX1, the IC50 is 37 nM. In addition, the inhibition at 10 µM at CYP3A4 turned out to be 83%.
Take `Cc1ccc(-n2nccn2)c(C(=O)N2CCC[C@@H](C)[C@H]2CNc2nc3cc(F)ccc3o2)c1` [Example A129, ((2S,3R)-2-(((5-Fluorobenzo[d]oxazol-2-yl)amino)methyl)-3-methylpiperidin-1-yl)(5-methyl-2-(2H-1,2,3-triazol-2-yl)phenyl)methanone]: the IC50 at OX1 was 3 nM. The inhibition at 10 µM against CYP3A4 turned out to be 64%.
For the molecule `Cc1ccc(-c2ncccn2)c(C(=O)N2CCC[C@@H](C)[C@H]2CNc2ncc(Cl)cc2F)c1` [Example A181, ((2S,3R)-2-(((5-Chloro-3-fluoropyridin-2-yl)amino)methyl)-3-methylpiperidin-1-yl)(5-methyl-2-(pyrimidin-2-yl)phenyl)methanone], the IC50 on OX1 was 4 nM. Besides, at 10 µM the inhibition against CYP3A4 was 76%.
On to `C[C@@H]1CCCN(C(=O)c2cc(F)ccc2-c2ncccn2)[C@@H]1CNc1ccc(C(F)(F)F)cn1` [Example A228, (5-Fluoro-2-(pyrimidin-2-yl)phenyl)((2S,3R)-3-methyl-2-(((5-(trifluoromethyl)pyridin-2-yl)amino)methyl)piperidin-1-yl)methanone], for which, on OX1, the IC50 is 1 nM. The inhibition at 10 µM on CYP3A4 came to 72%.
The like results for `Cc1ccc(-c2ccc(F)cn2)c(C(=O)N2CCC[C@@H](C)[C@H]2CNc2ccc(Cl)cn2)c1` [Example A159, ((2S,3R)-2-(((5-Chloropyridin-2-yl)amino)methyl)-3-methylpiperidin-1-yl)(2-(5-fluoropyridin-2-yl)-5-methylphenyl)methanone] were, in that order, 170 nM and 88%.
For `Cc1ccc(-n2nccn2)c(C(=O)N2CCC[C@@H](C)[C@H]2CNc2ncc3cc(C)ccc3n2)c1` [Example A220, ((2S,3R)-3-Methyl-2-(((6-methylquinazolin-2-yl)amino)methyl)piperidin-1-yl)(5-methyl-2-(2H-1,2,3-triazol-2-yl)phenyl)methanone], on OX1, the IC50 was determined as 11 nM. The inhibition at 10 µM against CYP3A4 amounted to 68%.
`Cc1ccc(-n2ncnc2C)c(C(=O)N2CCC[C@@H](C)[C@H]2CNc2ccc(C(F)(F)F)cn2)c1` [Example A16, ((2S,3R)-3-Methyl-2-(((5-(trifluoromethyl)pyridin-2-yl)amino)methyl)piperidin-1-yl)(5-methyl-2-(5-methyl-1H-1,2,4-triazol-1-yl)phenyl)methanone]: on OX1, the IC50 came out at 260 nM. Moreover, on CYP3A4, 10 µM produced 96% inhibition.
In the case of `Cc1ccc(-c2ccnc(C)c2)c(C(=O)N2CCC[C@@H](C)[C@H]2CNc2nc3cc(Cl)ccc3o2)c1` [Example A37, ((2S,3R)-2-(((5-Chlorobenzo[d]oxazol-2-yl)amino)methyl)-3-methylpiperidin-1-yl)(5-methyl-2-(2-methylpyridin-4-yl)phenyl)methanone], the IC50 on OX1 is 4 nM. At CYP3A4, at 10 µM the inhibition was 96%.
For the molecule `Cc1ccc(-n2nccn2)c(C(=O)N2CCC[C@@H](C)[C@H]2CNc2ncc(C#N)cn2)c1` [Example A134, 2-((((2S,3R)-3-Methyl-1-(5-methyl-2-(2H-1,2,3-triazol-2-yl)benzoyl)piperidin-2-yl)methyl)amino)pyrimidine-5-carbonitrile], on OX1, the IC50 is 150 nM. At CYP3A4, this molecule registered an inhibition at 10 µM of 50%.
For the molecule `Cc1ccc(-n2nccn2)c(C(=O)N2CCC[C@@H](C)[C@H]2CNc2ccc(C(F)(F)F)cn2)c1F` [Example A318, (2-Fluoro-3-methyl-6-(2H-1,2,3-triazol-2-yl)phenyl)((2S,3R)-3-methyl-2-(((5-(trifluoromethyl)pyridin-2-yl)amino)methyl)piperidin-1-yl)methanone], the IC50 at OX1 came out at 7 nM. On CYP3A4, 10 µM produced 79% inhibition.
For `Cc1ccc(-c2cnn(C)c2)c(C(=O)N2CCC[C@@H](C)[C@H]2CNc2ncccc2C)c1` [Example A100, ((2S,3R)-3-Methyl-2-(((3-methylpyridin-2-yl)amino)methyl)piperidin-1-yl)(5-methyl-2-(1-methyl-1H-pyrazol-4-yl)phenyl)methanone], the IC50 on OX1 came to 1300 nM. This molecule also came in with an inhibition at 10 µM on CYP3A4 of 85%.
In the case of `C[C@@H]1CCCN(C(=O)c2cc(Cl)ccc2-c2ncccn2)[C@@H]1CNc1ncc(C(F)(F)F)cn1` [Example A201, (5-Chloro-2-(pyrimidin-2-yl)phenyl)((2S,3R)-3-methyl-2-(((5-(trifluoromethyl)pyrimidin-2-yl)amino)methyl)piperidin-1-yl)methanone], the IC50 at OX1 turned out to be 4 nM. For the same molecule, 10 µM produced 38% inhibition against CYP3A4.
Consider `Cc1ccc(-n2nccn2)c(C(=O)N2CCC[C@@H](C)[C@H]2CNc2ncc(C(F)(F)F)cn2)n1` [Example A175, ((2S,3R)-3-Methyl-2-(((5-(trifluoromethyl)pyrimidin-2-yl)amino)methyl)piperidin-1-yl)(6-methyl-3-(2H-1,2,3-triazol-2-yl)pyridin-2-yl)methanone], for which the IC50 on OX1 was 1 nM. At CYP3A4, this molecule had an inhibition at 10 µM of 33%.
With `Cc1ccc(-c2cnn(C)c2)c(C(=O)N2CCC[C@@H](C)[C@H]2CNc2nc3ccccc3o2)c1` [Example A2, ((2S,3R)-2-((Benzo[d]oxazol-2-ylamino)methyl)-3-methylpiperidin-1-yl)(5-methyl-2-(1-methyl-1H-pyrazol-4-yl)phenyl)methanone], the IC50 at OX1 was 61 nM. For the same molecule, at 10 µM the inhibition at CYP3A4 was 93%.
Regarding `C[C@@H]1CCCN(C(=O)c2ccccc2-n2nccn2)[C@@H]1CNc1ncc(C(F)(F)F)cn1` [Example A313, (2-(2H-1,2,3-Triazol-2-yl)phenyl)((2S,3R)-3-methyl-2-(((5-(trifluoromethyl)pyrimidin-2-yl)amino)methyl)piperidin-1-yl)methanone], the IC50 on OX1 is 5 nM. This molecule also displayed an inhibition at 10 µM on CYP3A4 of 60%.

As usually defined, the inhibition is the drop in the measured response relative to a control, in per cent.

Source of the values: US9440982B2 (Eolas Therapeutics, Inc., priority 2012, dated 2016).
